Source: patent US6699676B1, “Uses of ouabain and ouabain-like molecules in apoptosis related pathologies” (Corporation du Centre de Recherche du Centre, Hospitalier …, priority 1999, dated 2004)

Experiments:
[1] = system: VSMC-E1A; experiment: Chromatin cleavage assay in VSMC-E1A; type: cell-based, rat; settings: VSMC-E1A; for Increment of chromatin fragments triggered by serum withdrawal(%): 1 mM, pretreated 2 hours then 3 hours with or without calf serum, control increment taken as 100%
Method: FIG. 2. Effect of ouabain on chromatin cleavage in VSMC-E1A. (A) Kinetics of the accumulation of chromatin fragments in control (curves 1, 3) and ouabain-treated (curves 2, 4) VSMC-E1A in the presence of 10% calf serum (CS, curves 1, 2) or in CS-free medium (curves 3, 4). Mean values ±S.E. obtained in experiments performed in quadruplicate are given. (B) Content of chromatin fragments in VSMC-E1A subjected to 6 hr of incubation in serum-supplied medium with or without 1 mM ouabain, 0.25 μM staurosporine, 1 μM okadaic acid and 350 mM mannitol. Mean values±S.E. obtained in 3 experiments performed in quadruplicate are given. ★, ★★ p<0.05 and 0.001 compared to ouabain-untreated cells. In both experiments, ouabain was added 1 hour before triggering of apoptosis.
Cells were incubated in K^+-containing medium consisting of 91 mM NaCl, 5 mM KCl, 0.9 mM NaH2PO4, 44 mM NaHCO3, 1.8 mM CaCl2, 0.8 mM MgCl2, 33 mM HEPES and 5 mM D-glucose (pH 7.4) (lines 1 and 2) or in K^+-depleted medium (equimolar substitution of KCl by NaCl, line 3) with or without 10% calf serum (CS) and 1 mM ouabain as indicated. In experiments with VSMC-MYC and VSMC-E1A, cells were preincubated for 1 hr with ouabain or with K^+-depleted medium in the presence of CS and then subjected to treatment with serum-free media. After 24 hours (VSMC) or 6 hours (VSMC-MYC and VSMC-E1A), the content of chromatin fragments was measured as described in Experimental Procedures. Mean values±S.E. obtained in 3 experiments performed in quadruplicate (VSMC) or triplicate (VSMC-MYC, VSMC-E1A) are given. ★, ★★ p<0.05 and 0.001 compared to the controls.
To estimate chromatin cleavage, cells were incubated for 1 hr in the presence of 10% calf serum (CS) in the control solution (DMEM, [Na^+]=137 mM; [K^+]=5 mM—line 1) or under equimolar substitution of NaCl by KCl ([Na^+]=14 mM; [K^+]=128 mM—line 2) with or without 1 mM ouabain and then for an additional 6 hours in the same media with or without CS. Intracellular Na^+ and K^+ content was measured as steady-state distribution of isotopes after 24 hours preincubation of cells in control Na^+-enriched solution containing 0.5 μCi/ml ^86Rb or 2 μCilml ^22Na, and additional 6 hours incubation in Na^+—(line 1) or K^+—(line 2) enriched medium, containing 10% CS and isotopes with the same specific activity with or without 1 mM ouabain. For more details see Experimental Procedures. Mean values±S.E. obtained in 3 experiments performed in triplicate (ion content) or quadruplicate (chromatin cleavage) are given. ★p<0.001 compared to ouabain-untreated cells.
VSMC-E1A cells were pretreated with compounds indicated in the left column during 2 hours in DMEM containing 10% calf serum and then additional 3 hours in the absence or presence of calf serum. The increment of the content of chromatin fragments triggered by serum withdrawal in control cells was taken as 100%. Means+S.E. from experiments performed with quadruplicate are given. ★p<0.001 as compared to control.
(§1) Cells. VSMC were obtained by explant methods from aortas of 10- to 13-week-old male rats as described previously (17), cultured in DMEM with 10% calf serum, 100 U/ml penicillin, 100 µg/ml streptomycin and used between 10 to 16 passages. Cells transfected with c-myc (VSMC-MYC) and E1A-adenovirus (VSMC-E1A) were obtained in accordance with a previously-described protocol (18,19) and were cultured in the same medium with the addition of 500 µg/ml genticin. Jurkat cells were obtained from the American Type Culture Collection and cultured in RPMI 1640 medium supplied with 10% calf serum, antibiotics, sodium pyruvate, glutamate and β-mercaptoethanol.
Chromatin cleavage assay. Chromatin cleavage in VSMC was estimated by a technique described previously in detail (10). Briefly, VSMC grown in 24-well dishes were labeled for 24 hours in serum-supplied DMEM with [^3H]-thymidine (1 μCi/ml), washed with 2×2 ml of DMEM and incubated in serum-supplied DMEM. […]

[2] = system: caspase-3; experiment: Caspase-3 activity in treated VSMC-E1A; type: cell-based, rat; settings: 6 hours, staurosporine 0.25 μM, okadaic acid 1 μM
Method: (§2) FIG. 5. Effect of ouabain on caspase-3 activity in VSMC-E1A (A) and Jurkat cells (B). VSMC-E1A and Jurkat cells were pretreated with 1 mM ouabain for 1 and 2 hours, respectively, and the additions indicated below the bars were delivered in media with 10% calf serum and with the baseline (137/5) or inverse (14/128) [Na^+]o/[K^+]o ratio for 6 (VSMC-E1A) or 3 hours (Jurkat cells). In experiments with VSMC-E1A, calf serum (CS) was omitted where indicated (−). Abbreviations: staur.—staurosporine (0.25 μM), ok.ac.—okadaic acid (1 μM), mann.—mannitol (350 mM); Fas-L—Fas ligand (100 ng/ml). Mean values±S.E. obtained in experiments performed in quadruplicate (A) or triplicate (B) are given. ★p<0.001 compared to ouabain-untreated cells.
(§3) Caspase activity. VSMC-E1A seeded in 20 cm^2 flasks and treated as indicated in FIG. 5 were scratched, transferred to centrifuge tubes, washed twice with PBS and lysed in 0.5 ml of buffer A contaming 50 mM tris-HCl (pH 7.4), 5 mM MgCl2, 1 mM EGTA and 0.1% CHAPS. Then, 50-100 μl of cell lysate was mixed with 600 μl of buffer A containing 1 mM dithiothreitol, 40 μM YVAD-AMC or DEVD-AMC with or without 1 μM of caspase-1 and capspase-3 inhibitors (Ac-YVAD-CHO and Ac-DEVD-CHO, respectively), incubated for 2 hours at 37° C. and diluted 15-fold with 80 mM glycine-NaOH buffer (pH 10). Fluorescence of the samples was measured at ex=365 run and em=465 run and calibrated with AMC in the range of 10 to 100 nM. To measure caspase activity in control and ouabain-treated Jurkat cells, 5 ml of suspension containing ˜2×10^7 cells was transferred onto ice and sedimented. The pellet of cells was washed and treated with 0.3 ml of medium A in the same way as VSMC. Protein content was estimated by Bradford methods.

[3] = system: caspase-3; experiment: Caspase-3 activity in treated Jurkat cells; type: cell-based, human; settings: 3 hours, Fas ligand 100 ng/ml, staurosporine 0.25 μM, mannitol 350 mM
Method: as §2, §3

[4] = system: Jurkat cells; experiment: Chromatin cleavage assay in Jurkat cells; type: cell-based, human; settings: for Chromatin fragments (%): Jurkat cells without ouabain, +Fas-L 100 ng/ml, 7 hours
Method: FIG. 4. Effect of ouabain on chromatin cleavage in Jurkat cells. (A) Kinetics of accumulation of chromatin fragments in control (curves 1, 3) and ouabain-treated (curves 2, 4) cells in the absence (curves 1, 2) or presence (curves 3, 4) of 100 ng/ml of anti-human Fas (mouse monoclonal IgM, Upstate Biotechnology, Lake Placid, N.Y.); (B) Content of chromatin fragments in Jurkat cells subjected to 3 hours of incubation with or without 1 mM ouabain, 0.25 μM staurosporine and 350 mM mannitol. In both experiments, ouabain was added 2 hours before triggering of apoptosis. Mean values±S.E. obtained in experiments performed in triplicate are given.
To estimate chromatin cleavage, cells were incubated for 2 hours in the presence of 10% calf serum in the control solution (DMEM, [Na^+]=137 mM; [K^+]=5 mM—line 1) or under equimolar substitution of NaCl with KCl ([Na^+]=14 mM; [K^+]=128 mM—line 2) with or without 1 mM ouabain and then for an additional 7 hours at the same media with or without 100 ng/ml Fas ligand (Fas-L). Intracellular Na^+ and K^+ content was measured as steady-state distribution of isotopes after 24 hours preincubation of cells in control Na^+-enriched solution containing 0.5 μCi/ml ^86Rb or 2 μCi/ml ^22Na, and an additional 6 hours incubation in Na^+—(line 1) or K^+—(line 2) enriched medium containing 10% calf serum, isotopes with the same specific activity with or without 1 mM ouabain. For more details see Experimental Procedures. Mean values±S.E. obtained in experiments performed in triplicate are given. ★, #p<0.01 and 0.001 compared to ouabain-untreated cells.
as §1
Chromatin cleavage assay. Chromatin cleavage in VSMC was estimated by a technique described previously in detail (10). Briefly, VSMC grown in 24-well dishes were labeled for 24 hours in serum-supplied DMEM with [^3H]-thymidine (1 μCi/ml), washed with 2×2 ml of DMEM and incubated in serum-supplied DMEM. In 48 hr, the cells were pretreated with ouabain or K^+-depleted medium as indicated in FIG. 2 and Table 3, washed twice with serum-containing medium and incubated with 0.5 ml of medium with or without ouabain and containing different inducers of apoptosis. To measure the content of chromatin fragments, the cells were transferred on ice and 1 ml of ice-cold lysed buffer (10 mM EDTA, 10 mM tris-HCl, 0.5% triton X100 (pH 8.0)) was added. After 15 min, the cell lysate was transferred to Ependorf tubes, sedimented (12,000 rpm, 10 mm), and 1 ml of supernatant was transferred for the measurement of radioactivity (A1t). The remaining radioactivity from pellets and wells was extracted with 0.5 ml of 1% SDS/4 mM EDTA mixture, combined and counted (A2). Chromatin cleavage was quantified as the content of chromatin fragments normalized by total content of [^3H]-labeled DNA in accordance with the equation [1.5×(A1t−A1o)/(A2+A1t−1.5A1o)]×100% where A1o is the value of A1t before induction of apoptosis. To measure chromatin fragmentation in [^3H]-thymidine-labeled Jurkat cells, they were resuspended at a density of 10^6 cells/ml in medium containing 10% calf serum and the additions indicated in FIG. 4 and Table 4. At the time intervals shown in FIG. 4, 100 μl of cell suspension was mixed with 100 μl of PBS contairung 0.5% triton X100, and the content of chromatin fragments was measured as described previously in detail (20).

[5] = biological target: T1, caspase-1 (Rattus norvegicus, UniProt P43527); type: biochemical; settings: lysates of VSMC-E1A after 6 hours serum withdrawal, 100 mM added, data not shown
T1 construct: we measured the activity of caspases in lysates of VSMC-E1A subjected to 6 hours serum withdrawal; endogenous in cells; host or cells: VSMC-E1A (rat aortic vascular smooth muscle cells transfected with E1A adenoviral protein), cell lysate
T1 sequence (P43527 119-402): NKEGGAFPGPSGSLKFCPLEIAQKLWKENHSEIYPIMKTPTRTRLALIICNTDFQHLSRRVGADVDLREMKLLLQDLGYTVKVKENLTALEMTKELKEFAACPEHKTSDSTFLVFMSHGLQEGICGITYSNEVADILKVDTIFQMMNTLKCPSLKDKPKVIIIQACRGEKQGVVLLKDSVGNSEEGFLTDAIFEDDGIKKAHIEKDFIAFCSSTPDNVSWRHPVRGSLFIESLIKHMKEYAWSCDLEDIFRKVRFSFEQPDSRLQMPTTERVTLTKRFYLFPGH
Method: (§4) To examine this hypothesis, we measured the activity of caspases in lysates of VSMC-E1A subjected to 6 hours serum withdrawal has been measured.
as §3

[6] = system: caspase-3; type: biochemical, rat; settings: lysates of VSMC-E1A after 6 hours serum withdrawal, 100 mM added, data not shown
Method: as §4, §3

C=C1[C@@H](O)[C@@H]2O[C@]3(CC[C@H](/C=C/[C@@H](C)[C@@H]4CC(C)=C[C@@]5(O[C@H](C[C@@](C)(O)C(=O)O)CC[C@H]5O)O4)O3)CC[C@H]2O[C@@H]1[C@@H](O)C[C@H](C)[C@H]1O[C@@]2(CCCCO2)CC[C@H]1C [okadaic acid]
content of chromatin fragments ([1]; 6 hr, serum-supplied medium, 0.25 μM staurosporine, 1 μM okadaic acid): 28.3±4.2% | increase of caspase-3 activity [2]: 10 fold

Fas ligand
increase of caspase-3 activity [3]: ~30 fold | Chromatin fragments (%) ([4]; medium [Na+]o=14, [K+]o=128 mM): 20.0±2.2% | Chromatin fragments (%) ([4]; medium [Na+]o=14, [K+]o=128 mM, listed as Fas-L): 20.2% | Chromatin fragments (%) ([4]; medium [Na+]o=137, [K+]o=5 mM): 28.5±3.3% | Chromatin fragments (%) ([4]; medium [Na+]o=137, [K+]o=5 mM, listed as Fas-L): 28.5% | increase of the content of chromatin fragments ([4]; Jurkat cells, 1.5 hour incubation with Fas ligand 100 ng/ml): 10 fold | increment of the content of chromatin fragments triggered by Fas ligand ([4]; control Jurkat cells, 7-hr incubation): 23.6±3.9%

C[C@H]1O[C@@H](O[C@H]2[C@@H](O)C[C@H](O[C@H]3[C@@H](O)C[C@H](O[C@H]4CC[C@@]5(C)[C@H](CC[C@@H]6[C@@H]5C[C@@H](O)[C@]5(C)[C@@H](C7=CC(=O)OC7)CC[C@]65O)C4)O[C@@H]3C)O[C@@H]2C)C[C@H](O)[C@@H]1O [Digoxin, 12β-hydroxy-digitoxin]
Increment of chromatin fragments triggered by serum withdrawal(%) [1]: 18 ± 4 %

C[N+](C)(C)CCO.[Cl-] [choline chloride]
decrease of caspase-1 activity [5]: the same level of inhibition | decrease of caspase-3 activity [6]: the same level of inhibition

C[C@H]1O[C@@H](O[C@H]2[C@@H](O)C[C@H](O[C@H]3[C@@H](O)C[C@H](O[C@H]4CC[C@@]5(C)[C@H](CC[C@@H]6[C@@H]5CC[C@]5(C)[C@@H](C7=CC(=O)OC7)CC[C@]65O)C4)O[C@@H]3C)O[C@@H]2C)C[C@H](O)[C@@H]1O [Digitoxin, 5β,20[22]-cardenolide-3β,14-diol-3[O-2,6-dideoxy-β-D-ribohexopyranosyl-(1->4)-2,3-dideoxy-β-D-ribohexo-pyranosyl]oxy]
Increment of chromatin fragments triggered by serum withdrawal(%) [1]: 24 ± 6 %

[Cl-].[K+] [KCl]
decrease of caspase-1 activity [5]: 10-20% | decrease of caspase-3 activity [6]: 10-20%

[Cl-].[Na+] [NaCl]
decrease of caspase-1 activity [5]: the same level of inhibition | decrease of caspase-3 activity [6]: the same level of inhibition
